Measurements from paper PMC9546217, “Exploring novel nitrofuranyl sulfonohydrazides as anti‐Leishmania and anti‐cancer agents: Synthesis, in vitro efficacy and hit identification” (Chemical Biology & Drug Design, 2022).
Where two headings read alike, the source gives them in different places.

Assays:
[1] = Basal cytotoxicity, resazurin assay; settings: African green monkey
Method: (§1) The assay method is available in the Supinfo S1.
(§2) African green monkey kidney epithelial (Vero) cells (Cellonex, South Africa) were cultured and the basal cytotoxicity of the synthesized compounds with antileishmanial and/or anticancer activity was evaluated using the resazurin assay, as described in Mangwegape et al. ^4 Emetine served as the standard cytotoxic drug. Further use of reference drugs, controls, data analysis, calculations and IC50 determinations were identical to that of the antileishmanial assay.

[2] = Cytotoxicity on differentiated host THP-1 macrophages, resazurin assay; assay type: cell-based, human; settings: human, PMA-differentiated THP-1 macrophages, read-out: Cytotoxicity, IC50 ± SD, THP‐1
Method: (§3) Duplicate 96‐well plates (for respective anti‐amastigote and cytotoxicity assays) were seeded with 200 μl of a 2.5 × 10^5 cells/ml suspension treated with 25 ng/ml phorbol 12‐myristate 13‐acetate (PMA), followed by 48‐h incubation to promote differentiation into adherent macrophages.
(§4) Cytotoxicity of the compounds on the differentiated host THP-1 cells were also evaluated. As mentioned, duplicate plates of differentiated THP-1 cells were prepared during the anti-amastigote assay. These plates were incubated for 72 hours to differentiate, instead of replacing the growth medium with parasite-containing medium after 48 hours. […] Blanks were growth medium without cells. The treated plates were incubated for 72 hours, followed by the addition of 50 μL of resazurin solution (0.01% in PBS) to each well and 24-hour incubation.

[3] = system: L. major strain IR‐173 promastigotes; test: Antipromastigote assay (resazurin); assay type: cell-based; settings: L. major IR‐173, read-out: Antileishmanial activity, IC50 ± SD, Promastigote
Method: (§5) The antipromastigote activity of synthesized compounds was evaluated as described previously by Mangwegape et al. ([2021]) using three strains of L. donovani (1S (MHOM/SD/62/1S) and 9515 (MHOM/IN/95/9515)) and L. major (IR‐173 [MHOM/IR/−173]). The assay method is available in the Supinfo S1.
(§6) The antipromastigote activity of synthesized compounds was evaluated using a modified, resazurin-based method of Kulshrestha et al. ^2 and Siqueira-Neto et al. ^3 and on three Leishmania strains. Leishmania donovani (strains 1S (MHOM/SD/62/1S) and 9515 (MHOM/IN/95/9515)) and L. major (strain IR-173 (MHOM/IR/-173)) promastigotes were cultured in M199 with Hank's salts and 0.68 mM L-glutamine (Sigma Aldrich) supplemented with 50 U/mL Penicillin/Streptomycin solution (Lonza), 4.2 mM sodium bicarbonate, 25 mM Hepes, 10% fetal bovine serum, 0.25% hemin, 0.1% biotin, and 10 mM adenine (Sigma Aldrich) and the pH adjusted to 7.3 – 7.4. The promastigotes were maintained at 25 °C.
(§7) Amphothericin B (10 μM) served as the standard drug and growth medium without parasites served as the blank. The plates were incubated for 48 hours at 25 °C in humidified atmosphere. After incubation, 50 μL of resazurin solution (0.01% in PBS) was added to each well and the plates were further incubated at 25 °C in the dark for 24 hours. Absorbance was measured at 570 nm and 600 nm using the Thermofisher Scientific GO Multiscan plate reader. Data analysis was performed for each biological replicate using SkanIt 4.0 Research Edition software. Background absorbance of resazurin (600 nm) was subtracted from the absorbance values of resorufin (570 nm). The mean absorbance calculated and the percentage growth inhibition and cell viability were determined by the following equations: […]
(§8) The IC50 and Z-score were determined for each compound’s three biological replicates using the cell viability % values and GraphPad Prism 5. The mean IC50 of the biological replicates with standard deviation (SD) served as the final IC50 of each compound.

[4] = system: L. donovani strain 9515 promastigotes; test: Antipromastigote assay (resazurin); assay type: cell-based; settings: L. donovani 9515, read-out: 9515 IC50 ± SD, Promastigote
Method: as §5, §6, §7, §8

[5] = system: L. donovani strain 1S promastigotes; test: Antipromastigote assay (resazurin); assay type: cell-based; settings: L. donovani 1S, read-out: 1S IC50 ± SD, Promastigote
Method: as §5, §6, §7, §8

Vero cells = test: in vitro
Method: as §1, §2

THP‐1 cells = test: Cytotoxicity on differentiated host THP-1 macrophages, resazurin assay; assay type: cell-based, human; settings: differentiated THP-1 macrophages, 72 h; read-out: Cytotoxicity, IC50 ± SD, THP‐1
Method: as §3, §4

[6] = system: L. donovani strains (1S and 9515) amastigotes; test: Anti-amastigote selectivity, strain not separated; assay type: cell-based; settings: strain not given
Method: The activities of synthesized compounds against the intramacrophage parasites of the three Leishmania strains were evaluated using a modified, resazurin‐based method (Jain et al., [2012]; Njanpa et al., [2021]). Suspension cultures of human acute monocytic leukemia (THP‐1) cells were maintained in RPMI‐1640 medium (Sigma Aldrich) supplemented with 10% FBS and 1% penicillin–streptomycin, at 37°C and 5% CO2 in a humidified atmosphere. Duplicate 96‐well plates (for respective anti‐amastigote and cytotoxicity assays) were seeded with 200 μl of a 2.5 × 10^5 cells/ml suspension treated with 25 ng/ml phorbol 12‐myristate 13‐acetate (PMA), followed by 48‐h incubation to promote differentiation into adherent macrophages.
For the anti‐amastigote assay, differentiated plates were carefully washed with PBS, followed by the addition of 200 μl of stationary phase promastigotes in RPMI 1640 medium with 2% FBS. An MOI of 30:1 was used for all three Leishmania strains. The parasite‐treated plates were incubated for 24 h at 32°C (L. major) or 37°C (L. donovani) and 5% CO2 to promote infection of the macrophages. […] Blanks were represented by growth medium without cells, as well as parasite‐free THP‐1 cells. The treated plates were incubated for 72 h.
After incubation, the plates were gently washed three times with PBS to remove any remaining extracellular parasites. The wells were then treated with 20 μl of 0.05% sodium dodecyl sulfate in PBS for 30 s to lyse the host macrophages. Lysis was terminated by adding 180 μl promastigote growth medium with 10% FBS. To initiate the resazurin assay, 10 μl of resazurin solution (0.025% in PBS) was added to all wells and the plates were incubated for 24 h at 32°C (L. major) or 37°C (L. donovani) and 5% CO2. Absorbance measurements, calculations, and IC50 determinations were performed as described for the antipromastigote assay (Supinfo S1).

[7] = system: Escherichia coli (ATCC 25922); parameters: method as in Alsaeedi et al., [2015]; settings: diffusion method; ref Alsaeedi et al., [2015]; cited from earlier work
[8] = system: Pseudomonas aeruginosa (ATCC 27853); parameters: method as in Alsaeedi et al., [2015]; settings: diffusion method; ref Alsaeedi et al., [2015]; cited from earlier work
[9] = system: Salmonella susi (ATTC 13070); parameters: method as in Alsaeedi et al., [2015]; settings: diffusion method; ref Alsaeedi et al., [2015]; cited from earlier work
[10] = system: Candida albicans (ATCC 10231); parameters: method as in Alsaeedi et al., [2015]; settings: diffusion method; ref Alsaeedi et al., [2015]; cited from earlier work

Row | Compound | IC50 ([1]; Vero cells (kidney epithelial)) [µM] | IC50 at 72 h [2] [µM] | IC50 ([3]; Leishmania major) [µM] | IC50 ([4]; Leishmania donovani) [µM] | IC50 ([5]; Leishmania donovani) [µM] | IC50 (Vero cells) [µM] | IC50 (THP‐1 cells) [µM] | IC50 [3] [µM] | IC50 [4] [µM] | IC50 [5] [µM] | selectivity index (SI) relative to the host THP‐1 cells [6] | selectivity index (SI) toward Vero cells [6] | antimicrobial activity (inhibition zone) [7] | antimicrobial activity (inhibition zone) [8] | inhibition zone [9] [mm] | antimicrobial activity (inhibition zone) [10] | IC50 [1] [µM]
1 | CC(C)c1ccc(S(=O)(=O)N/N=C/c2ccc([N+](=O)[O-])o2)cc1 [2d, (E)-4-Isopropyl-N'-[(5-nitrofuran-2-yl)methylene]benzenesulfonohydrazide] | 22.2 ± 0.8 | 93.1 ± 3.51 | 4.71 ± 0.33 | 3.62 ± 0.65 | 5 ± 1.32 | – | – | – | – | – | – | – | – | – | – | – | –
2 | (E)-2,4,6-Trimethyl-N'-[(5-nitrofuran-2-yl)methylene]benzenesulfonohydrazide [2e] | – | – | – | – | – | 39.8 ± 5.89 | > 100 | 7.09 ± 0.74 | 3.97 ± 1.08 | 3.04 ± 0.04 | > 10 | < 10 | – | – | – | – | –
3 | Cc1ccc(S(=O)(=O)N/N=C/c2ccc([N+](=O)[O-])o2)cc1 [2c, (E)-4-Methyl-N'-[(5-nitrofuran-2-yl)methylene]benzenesulfonohydrazide] | – | – | > 10 | > 10 | > 10 | – | – | – | – | – | – | – | no activity | no activity | 20 | no activity | –
4 | CC(C)(C)c1ccc(S(=O)(=O)N/N=C/c2ccc([N+](=O)[O-])o2)cc1 [2f, (E)-4-(tert-Butyl)-N'-[(5-nitrofuran-2-yl)methylene]benzenesulfonohydrazide] | 29.2 ± 5.86 | 84.6 ± 2.16 | 6.93 ± 0.83 | 3.5 ± 0.58 | 5.29 ± 0.69 | – | – | – | – | – | > 10 | < 10 | – | – | – | – | –
5 | O=C1CN(/N=C/c2ccc([N+](=O)[O-])o2)C(=O)N1 [NFT, nitrofurantoin, reference compound] | – | > 100 | > 10 | > 10 | > 10 | – | – | – | – | – | – | – | – | – | – | – | > 100
6 | O=C(N/N=C/c1ccc([N+](=O)[O-])o1)c1ccc(O)cc1 [NFX, Nifuroxazide, reference compound] | – | > 100 | > 10 | > 10 | > 10 | – | – | – | – | – | – | – | – | – | – | – | > 100
7 | O=[N+]([O-])c1ccc(/C=N/NS(=O)(=O)c2cccc3c2OCCO3)o1 [2l, (E)-N'-[(5-Nitrofuran-2-yl)methylene]-2,3-dihydrobenzo[b][1,4]dioxine-5-sulfonohydrazide] | 41.2 ± 3.3 | > 100 | 8.1 ± 0.03 | 7.25 ± 0.11 | 9.24 ± 1.32 | – | – | – | – | – | > 10 | < 10 | – | – | – | – | –
8 | O=[N+]([O-])c1ccc(/C=N/NS(=O)(=O)c2ccc(-c3ccccc3)cc2)o1 [2h, (E)-N'-[(5-Nitrofuran-2-yl)methylene]-(1,1'-biphenyl)-4-sulfonohydrazide] | 16.4 ± 5.8 | 50.4 ± 2.26 | 2.49 ± 0.51 | 1.53 ± 0.14 | 1.45 ± 0.16 | – | – | – | – | – | > 10 | < 10 | – | – | – | – | –
9 | O=Cc1ccc([N+](=O)[O-])o1 [NFA, 5‐nitro‐2‐furaldehyde, reference compound] | 23.2 ± 2.62 | – | 7.28 ± 0.1 | > 10 | 6.39 ± 0.26 | – | 80.9 ± 6.37 | – | – | – | – | – | – | – | – | – | –
